# In US20060029548A1, “Methods of diagnosing, monitoring and treating pulmonary diseases” (priority 2004, published 2006):
# Values joined by “and” are separate entries in the source; they are usually repeats but may differ in a detail not shown here. Equal values may be shown once.
# What was measured:
# Format in all cases: in vivo
# [1] = test system: human subjects (cough, throat irritation, sputum); experiment: Symptoms other than dyspnoea recorded after inhalation challenge; conditions: all subjects
# Excerpt: (§1) The clinical study described in Examples 2-4 was randomized, double blind, crossover, and controlled. Each subject attended the laboratory on three occasions. Procedures on the initial screening visit included obtaining information about the study and a number of investigations in the following order: medical history, lung function, reversibility and skin prick testing. At visit 2 and 3, separated by 2-7 days, the subjects were subjected to either an ATP or AMP challenge in a randomized fashion such that, by the end of the study, each patient had been tested with both compounds. Before, immediately after, and 30 minutes after the challenge, lung function and Borg score for dyspnoea were determined, and symptoms other than dyspnoea were recorded.
# (§2) For the tests described in Examples 2-4, ATP and AMP (Sigma, Gillingham, Dorset, England) were dissolved freshly in normal saline solution to produce a range of doubling concentrations from 0.227-929 umol/ml for ATP and from 0.138-1152 umol/ml for AMP and immediately used for bronchial challenge. The solutions were administered using a breath-activated dosimeter (Mefar, Bovezzo, Italy) with an output of 10 ul per inhalation [Prieto et al. (2003) Chest 123:993-997]. The subjects, while wearing a nose clip, inhaled (via a mouthpiece) five breaths of normal saline, followed by sequential doubling concentrations of either ATP or AMP from functional residual capacity to total lung capacity. FEV1 was measured from two minutes after the fifth inhalation of normal saline until there was a fall in FEV1 of ≧20% of its value recorded after saline inhalation or until maximal concentration of either ATP or AMP was inhaled. The provocative dose causing a 20% decrease in FEV1 (PD20) was calculated by interpolation of the logarithmic dose response curve.
# [2] = test system: human subjects (perception of dyspnoea); experiment: Borg score for dyspnoea before and after inhalation challenge; design: key to ΔBorg (change in Borg score before and after challenge): Borg score after minus before challenge; 0–10 scale
# Excerpt: as §1
# The modified Borg scale used to quantitate dyspnoea in the clinical study described in Examples 2-4 was a category scale in which words describing degrees of breathlessness were anchored to numbers between 0 and 10. The subjects were asked to select a number whose corresponding words most appropriately described their perception of breathlessness. The change in dyspnoea was expressed as ΔBorg, which was the difference in Borg score before and after the challenge [Rutgers et al. (2000) Eur. Respir. J. 16:486-490; Burdon et al. (1982) Am. Rev. Respir. Dis. 126:825-828]. Terms and associated numbers used in assessing Borg score were as follows: 0, “nothing at all”; 0.5, “very, very slight”; 1, “very slight”; 2, “slight”; 3, “moderate”; 4, “somewhat severe”; 5, “severe”; 7, “very severe”; 9, “very, very severe (almost maximal)”; and 10, “maximal” [Burdon et al. (1982)].
# as §2
# [3] = test system: human subjects (airway responsiveness, FEV1); experiment: Inhalation challenge test: airway responsiveness measured as change in FEV1 (PD20); conditions: for PD20 geometric mean: non-responders excluded; for PD20: individual subjects
# Excerpt: as §1
# In the clinical study described in Examples 2-4, spirometric tests were performed using a dry spirometer (Vitalograph Ltd., Buckingham, England) and the best value of the three expiratory manoeuvers was expressed as liters and percentage of the predicted.
# as §2
# All data from the analyses described in Examples 2-4 were performed with a software package (GraphPad Prism Software, Inc., USA). The significance of differences among groups was assessed by Student's t-test, and analysis of categorical variables was examined by Chi-square test. Pearson's correlation coefficient and linear regression analysis were used to analyze the relationship between the percentage decreases in FEV1 and Borg score. The PD20 values for ATP and AMP were logarithmically transformed to normalize their distribution and presented as geometric means. All other numerical variables were expressed as the mean±SEM and significance was defined as p<0.05.
structure (smiles),measurement,setting,value
"Nc1ncnc2c1ncn2[C@@H]1O[C@H](COP(=O)(O)O)[C@@H](O)[C@H]1O [AMP, adenosine 5′-monophosphate]",subjects who coughed after challenge,[1],48%
same,subjects who had sputum after challenge,[1],10%
same,subjects who had throat irritation after challenge,[1],53%
same,ΔBorg (change in Borg score before and after challenge),[2]; COPD,0.6
same,Borg score after challenge (at PD20),[2]; COPD patients,0.8
same,Borg score after challenge (at PD20),[2]; patients with asthma,2.5
same,ΔBorg (change in Borg score before and after challenge),[2]; patients with asthma,2.3
same,patients with bronchoconstriction,"[3]; 19 smoking subjects (seven healthy smokers, seven smokers at risk, five COPD)",21%
same,PD20 geometric mean,[3]; COPD (n = 7),210.6 µmol/mL
same,patients who responded to challenge,[3]; COPD patients,33%
same,PD20 geometric mean (range),[3]; all subjects who had airway responsiveness,82.9 (0.9-576.0) umol/ml
same,PD20 geometric mean,[3]; asthma (n = 10),113.5 µmol/mL
same,response to challenge,"[3]; healthy non-smokers, no change in FEV1 or reduction of less than 20%",negative
same,subjects who responded to challenge,[3]; healthy smokers,14%
same,PD20 geometric mean,[3]; healthy smokers (n = 7),74.6 µmol/mL
same,PD20,[3]; COPD (n = 7),0.9 μmol/ml and >1152 μmol/ml (4×) and 72.0 μmol/ml and 168.4 μmol/ml
same,PD20,[3]; asthma (n = 10),576.0 µmol/mL and 3.46 µmol/mL and 54.7 µmol/mL and 559.3 µmol/mL and 461.7 µmol/mL and 176.0 µmol/mL and >1152 µmol/mL and 15.8 µmol/mL and 556.4 µmol/mL and 72.0 µmol/mL
same,PD20,[3]; healthy smokers (n = 7),>1152 μmol/ml (6×) and 74.6 μmol/ml
same,PD20,"[3]; non-smokers (n = 10), provocative dose causing 20% decrease in FEV1",>1152 µmol/mL
same,PD20,[3]; smokers at risk (n = 7),>1152 μmol/ml (6×) and 576.0 μmol/ml
same,PD20 geometric mean,[3]; non-smokers (n = 10),>1152 µmol/mL
same,subjects responsive to challenge,[3]; of the 40 subjects in the study,32.5%
same,patients who responded to challenge,[3]; patients with asthma,90%
same,ΔFEV1 (decrease in FEV1 as percentage of baseline FEV1),[3]; patients with asthma,22%
same,subjects who responded to challenge,[3]; smokers at risk,14%
same,PD20 geometric mean,[3]; smokers at risk (n = 7),576.0 µmol/mL
